# Laboratory results published in patent US20060030569A1, “Diarylmethyl piperazine derivatives, preparations thereof and uses thereof” (AstraZeneca AB, priority 2004, published 2006).
# Read-outs that look alike come from different tables or passages of the source.
# What was measured:
# [1] = biological target: T1, cloned human μ receptors (Homo sapiens, UniProt P35372); experiment: Binding assay, displacement of 125I-FK33824 (IC50hm)
# T1 construct: expressed in transfected cells; host or cells: human 293S (HEK 293S) cells
# T1 sequence (P35372 whole entry): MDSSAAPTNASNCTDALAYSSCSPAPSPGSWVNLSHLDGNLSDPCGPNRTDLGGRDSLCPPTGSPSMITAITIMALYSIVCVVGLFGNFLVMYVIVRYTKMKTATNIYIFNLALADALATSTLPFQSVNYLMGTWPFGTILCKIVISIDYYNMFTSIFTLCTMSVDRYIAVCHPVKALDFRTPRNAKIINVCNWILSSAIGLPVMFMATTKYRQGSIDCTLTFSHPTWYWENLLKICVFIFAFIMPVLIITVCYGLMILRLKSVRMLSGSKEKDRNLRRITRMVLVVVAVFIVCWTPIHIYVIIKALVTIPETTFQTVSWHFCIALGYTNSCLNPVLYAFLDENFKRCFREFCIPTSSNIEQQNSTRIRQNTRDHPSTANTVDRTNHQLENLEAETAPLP
# [2] = biological target: T2, cloned human δ receptors (Homo sapiens, UniProt P41143); experiment: Binding assay, displacement of 125I-Deltorphin II (IC50hd)
# T2 construct: expressed in transfected cells
# T2 sequence (P41143 whole entry): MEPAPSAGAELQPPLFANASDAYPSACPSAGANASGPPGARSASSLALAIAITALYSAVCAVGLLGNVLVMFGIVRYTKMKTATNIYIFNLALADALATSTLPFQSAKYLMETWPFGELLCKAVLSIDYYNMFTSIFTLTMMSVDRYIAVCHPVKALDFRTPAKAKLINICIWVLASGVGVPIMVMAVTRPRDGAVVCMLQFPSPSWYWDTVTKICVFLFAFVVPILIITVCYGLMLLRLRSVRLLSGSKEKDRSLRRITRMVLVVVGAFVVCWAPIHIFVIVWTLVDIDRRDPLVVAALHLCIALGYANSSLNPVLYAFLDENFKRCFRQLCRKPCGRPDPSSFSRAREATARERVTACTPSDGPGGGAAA
# [3] = biological target: T3, cloned human κ receptors (Homo sapiens, UniProt P41145); experiment: Binding assay, displacement of 125I-DPDYN (IC50hk)
# T3 construct: expressed in transfected cells; host or cells: human 293S (HEK 293S) cells
# T3 sequence (P41145 whole entry): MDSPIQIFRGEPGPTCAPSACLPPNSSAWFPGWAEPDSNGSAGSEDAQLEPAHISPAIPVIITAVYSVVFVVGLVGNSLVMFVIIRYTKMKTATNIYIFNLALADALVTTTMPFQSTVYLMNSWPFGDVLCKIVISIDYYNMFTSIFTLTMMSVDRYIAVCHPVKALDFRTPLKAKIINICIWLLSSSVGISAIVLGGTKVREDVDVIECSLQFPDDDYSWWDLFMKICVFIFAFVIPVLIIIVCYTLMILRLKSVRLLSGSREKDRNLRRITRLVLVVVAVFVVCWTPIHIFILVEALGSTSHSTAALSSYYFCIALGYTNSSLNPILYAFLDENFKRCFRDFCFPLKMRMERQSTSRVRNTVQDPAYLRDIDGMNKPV
# [4] = biological target: T4, human δ receptors (Homo sapiens, UniProt P41143); experiment: Human δ receptor functional assay, GTP[γ]35S binding; format: biochemical; conditions: for Emax: in relation to SNC80
# T4 construct: expressed in transfected cells
# T4 sequence (P41143 whole entry): as the sequence (P41143 whole entry) above
# Method: (§1) The agonist activity of the compounds is measured by determining the degree to which the compounds receptor complex activates the binding of GTP to G-proteins to which the receptors are coupled. In the GTP binding assay, GTP[γ]^35S is combined with test compounds and membranes from BEK-293S cells expressing the cloned human opioid receptors or from homogenised rat or mouse brain. Agonists stimulate GTP[γ]^35S binding in these membranes. The EC50 and Emax values of compounds are determined from dose-response curves. Right shifts of the dose response curve by the delta antagonist naltrindole are performed to verify that agonist activity is mediated through delta receptors. For human δ receptor functional assays, EC50 (low) is measured when the human δ receptors used in the assay were expressed at lower levels in comparison with those used in determining EC50 (high). The Emax values were determined in relation to the standard δ agonist SNC80, i.e., higher than 100% is a compound that has better efficacy than SNC80.
# (§2) Rat brain membranes are thawed at 37° C., passed 3 times through a 25-gauge blunt-end needle and diluted in the GTPγS binding (50 mM Hepes, 20 mM NaOH, 100 mM NaCl, 1 mM EDTA, 5 mM MgCl2, pH 7.4, Add fresh: 1 mM DTT, 0.1% BSA). 120 μM GDP final is added membranes dilutions. […] The basal and maximal stimulated binding are determined in absence and presence of 3 μM SNC80. The assay performed on HEK 293S cells stably expressing cloned Delta receptors is done in a slightly different buffer (50 mM Hepes, 20 mM NaOH, 200 mM NaCl, 1 mM EDTA, 5 mM MgCl2, pH 7.4, Add fresh: 0.5% BSA, no DTT) and with a 3 μM final conc. of GDP.
# [5] = biological target: T5, δ receptors in rat brain membranes (Rattus norvegicus, UniProt P33533); experiment: Rat brain functional assay, GTPγ35S binding; format: biochemical; conditions: for Emax: in relation to SNC80, read-out: EC50rb Emax
# T5 construct: membranes from BEK-293S cells expressing the cloned human opioid receptors or from homogenised rat or mouse brain; from tissue; host or cells: rat brain
# T5 sequence (P33533 whole entry): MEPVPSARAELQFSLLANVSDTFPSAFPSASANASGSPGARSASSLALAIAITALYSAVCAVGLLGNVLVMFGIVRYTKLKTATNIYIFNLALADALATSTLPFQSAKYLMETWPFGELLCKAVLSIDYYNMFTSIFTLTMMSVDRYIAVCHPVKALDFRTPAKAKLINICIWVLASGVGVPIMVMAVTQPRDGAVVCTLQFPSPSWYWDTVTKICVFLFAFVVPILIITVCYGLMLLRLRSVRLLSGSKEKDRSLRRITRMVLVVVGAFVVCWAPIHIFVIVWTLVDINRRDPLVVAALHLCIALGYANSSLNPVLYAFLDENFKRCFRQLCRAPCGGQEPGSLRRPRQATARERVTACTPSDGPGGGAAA
# Method: Rat brains are weighed and rinsed in ice-cold PBS (containing 2.5 mM EDTA, pH 7.4). The brains are homogenized with a polytron for 30 sec (rat) in ice-cold lysis buffer (50 mM Tris, pH 7.0, 2.5 mM EDTA, with phenylmethylsulfonyl fluoride added just prior use to […] from a 0.5 M stock in DMSO:ethanol).
# as §1, with “(high).” for “(high). The Emax values were determined in relation to the standard δ agonist SNC80, i.e., higher than 100% is a compound that has better efficacy than SNC80.”
# as §2
# [6] = human δ receptor, 293S cell membranes, read-out: IC50hd
# [7] = human δ receptors expressed at higher levels, read-out: EC50h (high) Emax
# [8] = human δ receptors expressed at higher levels, read-out: EC50h (high)
# [9] = EC50h (low), human δ receptors expressed at lower levels
# [10] = human δ receptors expressed at lower levels, read-out: EC50h (low) Emax
SMILES,IC50 [1],"IC50 [2, 6]",IC50 [3],"Emax [4, 7]","EC50 [4, 8]",EC50 [5],Emax [5],IC50 [2],"EC50 [4, 9]","Emax [4, 10]","EC50 ([4]; human δ receptors expressed at lower levels, read-out: EC50h (low))"
CCN(CC)C(=O)c1ccc([C@@H](c2cccc(N)c2)N2CCN(Cc3ccc(F)cc3)CC2)cc1,3.32 µM,0.0088 µM,> 10 µM,89.1%,0.1 µM,0.466 µM,66.3%,–,–,–,–
CCN(CC)C(=O)c1ccc([C@H](c2cccc(N)c2)N2CCN(Cc3cccc(F)c3)CC2)cc1,2.74 µM,–,5.77 µM,–,–,–,–,0.00108 µM,0.0774 µM,84.4%,–
CCN(CC)C(=O)c1ccc([C@H](c2cccc(N)c2)N2CCN(Cc3ccc(F)cc3)CC2)cc1,0.715 µM,0.000587 µM,5.52 µM,104%,0.00418 µM,0.0228 µM,130%,–,–,95.3%,0.0206 µM
CCN(CC)C(=O)c1ccc([C@H](c2cccc(N)c2)N2CCN(Cc3ccccc3F)CC2)cc1,2.26 µM,–,7.26 µM,–,–,–,–,0.000717 µM,0.0481 µM,90%,–
